The structures appear in SMILES notation. Where only a bound is given, the exact number is not on record here.

The values below come from patent US9221810B2, “Substituted bicyclic aromatic compounds as S-nitrosoglutathione reductase inhibitors” (Nivalis Therapeutics, Inc., priority 2010, dated 2015).

The nature of data set [1]: Mouse pharmacokinetic (PK) study. Type of data set: in vivo, male BALB/c mice. The settings on record: male, BALB/c, plasma, po, 10 mg/kg, IV 2 mg/kg, read-out: oral bioavailability (% F). The text has this: The mouse was used to determine the pharmacokinetics of compounds of the invention. This species is widely used to assess the bioavailability of compounds by administering both oral (PO) and intravenous (IV) test articles. Efficacy of the compounds of the invention was compared by assessing plasma exposure in male BALB/c mice either via IV or PO administration at the times of peak activity.
Compounds of the invention were reconstituted in a phosphate buffered saline (PBS)/10% Solutol (HS 15) clear solution resulting in a concentration of 0.2 mg/mL and administered to mice (2 mg/kg) as a single IV dose. Animals were dosed via the lateral tail vein. Blood samples were collected at designated time points (0.083, 0.25, 0.5, 1, 2, 4, 8, 16, 24 hours) by cardiac puncture under isoflurane anesthesia (up to 1 mL blood per animal). The blood was collected into tubes containing Li-Heparin. The blood samples were kept on ice until centrifugation within approximately 30 minutes of collection. The plasma was transferred into labeled polypropylene tubes and frozen at −70° C. until analyzed by LC/MS/MS.
The compounds of the invention were reconstituted in 40% Propylene Glycol/40% Propylene Carbonate/20% of a 5% Sucrose clear solution resulting in a concentration of 2 mg/mL and administered to mice (10 mg/kg) as a single oral dose via gavage. Blood samples were collected at 0.25, 0.5, 1, 2, 4, 8, 12, 16, 20 and 24 hours post dose by cardiac puncture under isoflurane anesthesia. The blood was collected in tubes containing Li-Heparin. […] The plasma was transferred into labeled polypropylene tubes and frozen at −70° C. until analyzed by LC/MS/MS.
Plasma samples at each timepoint were analyzed using a LC-MS/MS with a lower limit of quantification (LLOQ) of 1 ng/mL. Plasma was analyzed to determine the amount of the compound of the invention in each sample and regression curves generated for each compounds of the invention in the relevant matrixes. […]
In addition to the above PK parameters, bioavailability (% F) was calculated.

For data set [2], the system named is mouse model of ovalbumin (OVA)-induced asthma. In words: Mouse model of ovalbumin (OVA)-induced asthma: MCh-induced AHR (Penh) and eosinophil infiltrate in BALF. Type of data set: in vivo. Conditions: single IV dose of 10 mg/kg at 24 h prior to assessment. Here is the method:
A mouse model of ovalbumin (OVA)-induced asthma was used to screen GSNOR inhibitors for efficacy against methacholine (MCh)-induced bronchoconstriction/airway hyper-responsiveness. This is a widely used and well characterized model that presents with an acute, allergic asthma phenotype with similarities to human asthma. Efficacy of GSNOR inhibitors was assessed using a protocol in which GSNOR inhibitors were administered after OVA sensitization and airway challenge, and prior to challenge with MCh. Bronchoconstriction in response to challenge with increasing doses of MCh was assessed using whole body plethysmography (Penh; Buxco). The amount of eosinophil infiltrate into the bronchoaveolar lavage fluid (BALF) was also determined as a measure of lung inflammation. The effects of GSNOR inhibitors were compared to vehicles and to Combivent (inhaled; IH) as the positive control.
OVA (500 μg/ml) in PBS was mixed with equal volumes of 10% (w/v) aluminum potassium sulfate in distilled water and incubated for 60 min. at room temperature after adjustment to pH 6.5 using 10 N NaOH. After centrifugation at 750×g for 5 min, the OVA/alum pellet was resuspended to the original volume in distilled water. Mice received an intraperitoneal (IP) injection of 100 μg OVA (0.2 mL of 500 μg/mL in normal saline) complexed with alum on day 0. Mice were anesthetized by IP injection of a 0.2-mL mixture of ketamine and xylazine (0.44 and 6.3 mg/mL, respectively) in normal saline and were placed on a board in the supine position. Two hundred fifty micrograms (100 μl of a 2.5 mg/ml) of OVA (on day 8) and 125 μg (50 μl of 2.5 mg/ml) OVA (on days 15, 18, and 21) were placed on the back of the tongue of each animal.
In vivo airway responsiveness to methacholine was measured 24 h after the last OVA challenge in conscious, freely moving, spontaneously breathing mice with whole body plethysmography using a Buxco chamber (Wilmington, N.C.). […] The degree of bronchoconstriction was expressed as enhanced pause (Penh), a calculated dimensionless value, which correlates with the measurement of airway resistance, impedance, and intrapleural pressure in the same mouse. Penh readings were taken and averaged for 4 min. after each nebulization challenge. Penh is calculated as follows: Penh=[(Te/Tr−1)×(PEF/PIF)], where Te is expiration time, Tr is relaxation time, PEF is peak expiratory flow, and PIF is peak inspiratory flow×0.67 coefficient. […]
After measurement of airway hyper-reactivity, the mice were exsanguinated by cardiac puncture, and then BALF was collected from either both lungs or from the right lung after tying off the left lung at the mainstem bronchus. Total BALF cells were counted from a 0.05 mL aliquot, and the remaining fluid was centrifuged at 200×g for 10 min at 4° C. […]

As usually defined, the bioavailability is the share of a dose that reaches the circulation, judged against a reference dose that is usually intravenous. As to `Oc1ccc2nc(-c3ccc(-c4nnn[nH]4)cc3)ccc2c1` [Example 4, 2-(4-(1H-tetrazol-5-yl)phenyl)quinolin-6-ol], in data set [1], the bioavailability is over 9%. Also, the “decrease of eosinophil infiltration into BALF” value in data set [2] is recorded as 20 % of vehicle control. In addition, the “decrease of MCh-induced AHR” value in data set [2] (p<0.05) is 19 % of vehicle control.
